Consider 1 molecule from article PMC9436958, “The synthesis of novel thioderivative chalcones and their influence on NF-κB, STAT3 and NRF2 signaling pathways in colorectal cancer cells” (Scientific Reports, 2022).

The test system of the experiment is NF-κB p65. Description: Transcription factor ELISA, NF-κB p65 binding to DNA. It is filed as cell-based. Particulars: DLD-1 cells (context); 1, 4 at 1 μM; 2, 8 at 5 μM; vs control. The method, then: To estimate NF-ΚB (p50 and p65 subunits) STAT3 and Nrf2 activation, enzymatic immunoassays with the Transcription Factor ELISA Kit (TransAM™NF-κB, TransAM™STAT3/TransAM™Nrf2, Active Motif, Carlsbad CA, USA) were used following the manufacturer’s protocol. Briefly, proper consensus-site double-strand oligonucleotides (NF-κB—5′-GGGACTTTCC-3′; STAT3-5’—TTCCCGGAA-3’; Nrf2-5ʹ—[…]-3ʹ) were immobilized on an ELISA plate and incubated for one hour with the nuclear extracts. The activated subunits bound to DNA were recognized with a specific primary antibody and detected with an HRP-conjugated secondary antibody. The number of subunits was determined by spectrophotometry at λ = 450 nm. The number of p50, and p65 subunits, STAT3, as well as the amount of Nrf2 contained in the DNA-binding complex, corresponded to the activated NF-κB, STAT3, or Nrf2 transcription factors.

For `COc1cc(C(=O)/C=C/c2cccc(SC)c2)cc(Br)c1OC` [chalcone 4], the “reduction of the binding of the p65 subunit to DNA” value was 21%.
